One may read the Ki as a dissociation constant, usually derived from enzyme kinetics or from competition with a known ligand. As a reminder, the melting point is the temperature of the solid-liquid transition.

Structures are written as SMILES. Where a name gives a salt, the structure may show the parent alone. Read-outs that look alike come from different tables or passages of the source.

62 compounds from US7585873B2, “1-(aminoalkyl)-3-sulfonylazaindoles as 5-hydroxytryptamine-6 ligands” (Wyeth, priority 2002, dated 2009) can be followed below.

In data set [1] the target is T1, human cloned 5-HT6 receptors (Homo sapiens, UniProt P50406).
T1 construct: expressed in transfected cells; host or cells: Hela cells
Kind of data set: 5-HT6 binding affinity, [3H]-LSD displacement on membranes of Hela cells expressing human cloned 5-HT6 receptors.

[2] abbreviates: [3H]-LSD 3.0 nM, Hela cell membranes, 120 min at room temperature, read-out: 5-HT6 Binding Ki.

T1 sequence (P50406 whole entry): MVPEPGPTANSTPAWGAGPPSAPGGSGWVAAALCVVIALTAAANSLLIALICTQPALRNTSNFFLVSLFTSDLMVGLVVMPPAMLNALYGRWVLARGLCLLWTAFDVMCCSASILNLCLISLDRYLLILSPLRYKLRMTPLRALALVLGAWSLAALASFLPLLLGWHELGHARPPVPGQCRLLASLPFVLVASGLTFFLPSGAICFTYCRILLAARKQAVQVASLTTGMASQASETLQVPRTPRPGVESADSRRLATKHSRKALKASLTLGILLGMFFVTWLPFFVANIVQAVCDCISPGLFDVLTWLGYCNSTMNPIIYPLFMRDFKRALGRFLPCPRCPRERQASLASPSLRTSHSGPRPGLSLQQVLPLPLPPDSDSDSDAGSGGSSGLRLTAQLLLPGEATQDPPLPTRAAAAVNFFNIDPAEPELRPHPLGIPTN

As to `NCCn1cc(S(=O)(=O)c2ccc(F)cc2)c2cccnc21` [Example 11, 2-{3-[(4-Fluorophenyl)sulfonyl]-1H-pyrrolo[2,3-b]pyridin-1yl}ethylamine hydrochloride], the Ki in data set [1] (read-out: 5-HT6 Binding Ki) was 22 nM.

For `CN(C)CCn1cc(S(=O)(=O)c2ccc(F)cc2)c2cccnc21` [Example 13], the Ki in data set [1] (setting [2]) amounted to 50 nM.

With `Cc1c(S(=O)(=O)c2cccc(F)c2)c2cccnc2n1CCN` [Example 66], in data set [1] (setting [2]), the Ki stood at 2 nM.

Take `CN(C)CCn1cc(S(=O)(=O)c2cccc(C(F)(F)F)c2)c2cccnc21` [Example 19]: in data set [1] (setting [2]), the Ki is 5 nM.

Regarding `CCN(CC)CCn1cc(S(=O)(=O)c2cccc(Cl)c2)c2cccnc21` [Example 35], the melting point was in the range of 74 to 76 °C. Also, the inhibition constant (Ki) in data set [1] (setting [2]) stood at 20 nM.

Turning to `Cc1c(S(=O)(=O)c2cn(CCN(C)C)c3ncccc23)sc2ccc(Cl)cc12` [Example 36], the melting point is 212 to 215 °C. Also, the Ki in data set [1] (setting [2]) was found to be 102 nM.

In the case of `O=S(=O)(c1cn(CCNCc2ccccc2)c2ncccc12)c1c(Cl)nc2sccn12` [Example 61], the melting point was 173 to 175 °C. In data set [1] (setting [2]), the Ki worked out at 9 nM.

On to `CN(C)CCn1cc(S(=O)(=O)c2ccc(Cl)s2)c2cccnc21` (as salt: hydrochloride) [Example 33], for which the melting point fell in the range of 169 to 171 °C.

For `O=S(=O)(c1cn(CCN(Cc2ccccc2)Cc2ccccc2)c2ncccc12)c1c(Cl)nc2sccn12` [Example 39], the melting point is 140 to 145 °C. Further, in data set [1] (setting [2]), the Ki is 212 nM.

In the case of `CNCCn1cc(S(=O)(=O)c2cccc(C)c2)c2cccnc21` [Example 62], the melting point fell in the range of 244 to 246 °C. Also, the inhibition constant (Ki) in data set [1] (setting [2]) came to 1 nM.

Turning to `CN(C)CCn1cc(S(=O)(=O)c2ccccc2)c2ccc(Br)nc21` [Example 41], the melting point fell in the range of 182 to 184 °C. Moreover, in data set [1] (setting [2]), the Ki was determined as 41 nM.

For the compound `NCCn1cc(S(=O)(=O)c2cccc3ccccc23)c2cccnc21` [Example 16], in data set [1] (setting [2]), the Ki came to 2 nM.

`CN(C)CCn1cc(S(=O)(=O)c2c(Cl)nc3sccn23)c2cccnc21` (as salt: hydrochloride) [Example 34] registered a melting point of 180 to 182 °C.

With `CN(C)CCn1cc(S(=O)(=O)c2cccc(F)c2)c2ncccc21` [Example 77, N,N-Dimethyl-N-(2-{3-[(3-fluorophenyl)sulfonyl]-1H-pyrrolo[3,2-b]pyridin-1-yl}ethyl)amine Dihydrochloride], the Ki in data set [1] (setting [2]) came out at 200 nM.

`CN(C)CCn1cc(S(=O)(=O)c2c(Cl)cccc2Cl)c2cccnc21` [Example 37] gave a melting point of 220 to 222 °C. Also, the Ki in data set [1] (setting [2]) is 9 nM.

The compound `CN(C)CCn1cc(S(=O)(=O)c2cc(Cl)ccc2Cl)c2cccnc21` (as salt: hydrochloride) [Example 38] came in with a melting point of 230 to 232 °C.

The compound `COc1ccc2c(n1)c(S(=O)(=O)c1cccc(F)c1)cn2CCN(C)C` [Example 79] had a melting point of 208 to 212 °C. Also, in data set [1] (setting [2]), the Ki is 11 nM.

The compound `NCCn1cc(S(=O)(=O)c2ccc3ccccc3c2)c2cccnc21` (as salt: hydrochloride) [Example 67] came in with a melting point of 233 to 238 °C.

The compound `O=S(=O)(c1cccc(F)c1)c1cn(CCN2CCOCC2)c2ncccc12` (as salt: hydrochloride) [Example 30] yielded a melting point of 127 to 129 °C.

In the case of `CN(C)CCn1cc(S(=O)(=O)c2cccc3ccccc23)c2cccnc21` (as salt: hydrochloride) [Example 15], the melting point was 203 to 206 °C.

Regarding `CN(C)CCn1cc(S(=O)(=O)c2cccs2)c2cccnc21` [Example 25], the Ki in data set [1] (setting [2]) turned out to be 15 nM.

As for `NCCn1cc(S(=O)(=O)c2cccc(F)c2)c2cccnc21` [Example 17], the Ki in data set [1] (setting [2]) was determined as 6 nM.

On to `O=S(=O)(c1cccc(F)c1)c1cn(CCN2CCCC2)c2ncccc12` [Example 28], for which the Ki in data set [1] (setting [2]) stood at 88 nM.

On to `NCCn1cc(S(=O)(=O)c2ccc3ccccc3c2)c2cccnc21` [Example 67], for which the Ki in data set [1] (setting [2]) came out at 24 nM.

`NCCn1cc(S(=O)(=O)c2ccccc2C(F)(F)F)c2cccnc21` [Example 21]: the Ki in data set [1] (setting [2]) was found to be 2 nM.

The compound `NCCn1cc(S(=O)(=O)c2ccccc2C(F)(F)F)c2cccnc21` (as salt: hydrochloride) [Example 21] displayed a melting point of 182 to 185 °C.

The compound `Cc1c(S(=O)(=O)c2cccc(F)c2)c2cccnc2n1CCN` (as salt: hydrochloride) [Example 66] came in with a melting point of 239 to 241 °C.

On to `CN(C)CCn1cc(S(=O)(=O)c2cc(Cl)cc(Cl)c2)c2cccnc21` [Example 26], for which the Ki in data set [1] (setting [2]) was 4 nM.

For the compound `Cc1ccc(S(=O)(=O)c2cn(CCN)c3ncccc23)cc1` [Example 7, 2-{3-[(4-Methylphenyl)sulfonyl]-1H-pyrrolo[2,3-b]pyridin-1-yl}ethylamine dihydrochloride], the Ki in data set [1] (setting [2]) came out at 9 nM.

`CN(C)CCn1cc(S(=O)(=O)c2cc(Cl)ccc2Cl)c2cccnc21` [Example 38]: the inhibition constant (Ki) in data set [1] (setting [2]) worked out at 12 nM.

Turning to `CN(C)CCn1cc(S(=O)(=O)c2cccc3ccccc23)c2cccnc21` [Example 15], the Ki in data set [1] (read-out: 5-HT6 Binding Ki) was determined as 1 nM.

As for `O=S(=O)(c1cccc(F)c1)c1cn(CCN2CCCCC2)c2ncccc12` (as salt: hydrochloride) [Example 29], the melting point lay within 197 to 199 °C.

In the case of `NCCn1cc(S(=O)(=O)c2cccc3ccccc23)c2cccnc21` (as salt: hydrochloride) [Example 16], the melting point fell in the range of 148 to 170 °C.

As to `NCCn1cc(S(=O)(=O)c2cccc(C(F)(F)F)c2)c2cccnc21` (as salt: hydrochloride) [Example 22], the melting point is 179 to 183 °C.

In the case of `CN(C)CCn1cc(S(=O)(=O)c2cccc(Cl)c2)c2cccnc21` [Example 14], the Ki in data set [1] (setting [2]) stood at 2 nM.

As for `NCCn1cc(S(=O)(=O)c2cccs2)c2cccnc21` [Example 23], the Ki in data set [1] (setting [2]) was determined as 9 nM.

The compound `CN(C)CCn1cc(S(=O)(=O)c2cccs2)c2cccnc21` (as salt: hydrochloride) [Example 25] yielded a melting point of 212 to 216 °C.

Consider `NCCn1cc(S(=O)(=O)c2cccc(Cl)c2)c2cccnc21` [Example 12, 2-{3-[(3-Chlorophenyl)sulfonyl]-1H-pyrrolo[2,3-b]pyridin-1-yl}ethylamine dihydrochloride], for which the Ki in data set [1] was found to be 20 nM.

`NCCn1cc(S(=O)(=O)c2cccs2)c2cccnc21` (as salt: hydrochloride) [Example 23]: the melting point was in the range of 202 to 204 °C.

In turn, `CN(C)CCn1cc(S(=O)(=O)c2ccccc2C(F)(F)F)c2cccnc21` (as salt: hydrochloride) [Example 20] displayed a melting point of 196 to 198 °C.

In turn, `CC(CN)n1cc(S(=O)(=O)c2ccccc2)c2cccnc21` (stereo not shown) (as salt: hydrochloride) [Example 68] gave a melting point of 180 to 185 °C.

Take `NCCn1cc(S(=O)(=O)c2cccc(C(F)(F)F)c2)c2cccnc21` [Example 22]: in data set [1] (setting [2]), the Ki turned out to be 2 nM.

For the compound `O=S(=O)(c1cccc(F)c1)c1cn(CCN2CCOCC2)c2ncccc12` [Example 30], in data set [1] (setting [2]), the Ki amounted to 403 nM.

Turning to `NCCn1cc(S(=O)(=O)c2cc(Cl)cc(Cl)c2)c2cccnc21` (as salt: hydrochloride) [Example 24], the melting point fell in the range of 136 to 140 °C.

`CN(C)CCn1cc(S(=O)(=O)c2cccc(Cl)c2)c2cccnc21` (as salt: hydrochloride) [Example 14]: the melting point fell in the range of 182 to 186 °C.

As for `O=S(=O)(c1cccc(F)c1)c1cn(CCN2CCCCC2)c2ncccc12` [Example 29], the Ki in data set [1] (setting [2]) amounted to 158 nM.

`CN(C)CCn1cc(S(=O)(=O)c2cc(Cl)cc(Cl)c2)c2cccnc21` (as salt: hydrochloride) [Example 26]: the melting point was in the range of 227 to 232 °C.

In the case of `CN(C)CCn1cc(S(=O)(=O)c2c(Cl)nc3sccn23)c2cccnc21` [Example 34], the Ki in data set [1] (setting [2]) worked out at 2 nM.

On to `CN(C)CCn1cc(S(=O)(=O)c2ccccc2)c2cccnc21` [Example 6, N,N-Dimethyl-N-{2-[3-(phenylsulfonyl)-1H-pyrrolo[2,3-b]pyridin-1-yl]ethyl}amine dihydrochloride], for which the Ki in data set [1] (read-out: 5-HT6 Binding Ki) worked out at 23 nM.

In the case of `CNCCn1cc(S(=O)(=O)c2cccc(Cl)c2)c2cccnc21` [Example 57, N-(2-{3-[(3-Chlorophenyl)sulfonyl]-1H-pyrrolo[2,3-b]pyridin-1-yl}ethyl)-N-methylamine Hydrochloride], in data set [1] (read-out: 5-HT6 Binding Ki), the Ki was 0.3 nM.

On to `CN(C)CCn1cc(S(=O)(=O)c2cccc(C(F)(F)F)c2)c2cccnc21` (as salt: hydrochloride) [Example 19], for which the melting point lay in the range of 108 to 112 °C.

As to `CN(C)CCn1cc(S(=O)(=O)c2ccc(F)cc2)c2cccnc21` (as salt: hydrochloride) [Example 13], the melting point was in the range of 189 to 192 °C.

In the case of `CCNCCn1cc(S(=O)(=O)c2cccc(Cl)c2)c2cccnc21` [Example 60], the Ki in data set [1] (setting [2]) stood at 3 nM.

In turn, `NCCn1cc(S(=O)(=O)c2cccc(F)c2)c2cccnc21` (as salt: hydrochloride) [Example 17] showed a melting point of 202 to 204 °C.

With `CN(C)CCn1cc(S(=O)(=O)c2ccc(Cl)s2)c2cccnc21` [Example 33], the Ki in data set [1] (setting [2]) worked out at 4 nM.

Turning to `CN(C)CCn1cc(S(=O)(=O)c2ccccc2C(F)(F)F)c2cccnc21` [Example 20], the Ki in data set [1] (setting [2]) was 11 nM.

In the case of `Cc1c(S(=O)(=O)c2ccccc2)c2cccnc2n1CCN` [Example 18], in data set [1] (setting [2]), the Ki was 5 nM.

With `O=S(=O)(c1cccc(Cl)c1)c1cn(CCN2CCCC2)c2ncccc12` [Example 27], the Ki in data set [1] (setting [2]) worked out at 45 nM.

On to `NCCn1cc(S(=O)(=O)c2cc(Cl)cc(Cl)c2)c2cccnc21` [Example 24], for which the Ki in data set [1] (setting [2]) is 3 nM.

On to `NCCn1cc(S(=O)(=O)c2ccccc2)c2cccnc21` [Example 5, 2-[3-(Phenylsulfonyl)-1H-pyrrolo[2,3-b]pyridin-1-yl]ethylamine dihydrochloride], for which, in data set [1] (setting [2]), the Ki is 6 nM.

Take `COc1ccc2c(S(=O)(=O)c3ccccc3)cn(CCN(C)C)c2n1` [Example 42]: in data set [1] (setting [2]), the Ki worked out at 39 nM.

For the compound `CC(CN)n1cc(S(=O)(=O)c2ccccc2)c2cccnc21` (stereo not shown) [Example 68], the Ki in data set [1] (setting [2]) was 14 nM.
